# Experimental data reported in PMC7064328 (Environmental Health Perspectives, 2020).
# How the values were obtained:
# maternal liver [1] = test: Maternal liver histopathology (H&E); assay type: in vivo, mouse (CD-1); details: for CA, any severity: % / CA, any severity: N / CA, marked: % / CA, marked: N / CA, minimal to mild: % / CA, minimal to mild: N / CA, moderate: % / CA, moderate: N / Focal regions of classic necrosis: % / Focal regions of classic necrosis: N / Increase in cell death: % / Increase in cell death: N / Increase in mitotic figures: % / Increase in mitotic figures: N / Vacuolation, any severity: % / Vacuolation, any severity: N / Vacuolation, mild: % / Vacuolation, mild: N / Vacuolation, minimal: % / Vacuolation, minimal: N / Vacuolation, moderate: % / Vacuolation, moderate: N: maternal liver
# Text: From each uterus, first, viable embryos and their matched placentas were collected in succession within a horn and immediately snap frozen ( n=2–5 per litter ), and subsequent embryos were collected for growth measurements ( n=2–11 per litter ). Additional placentas were collected and placed in 4% paraformaldehyde (PFA) for histological analysis (Block 2 only). Amniotic fluid was collected by needle aspiration from litters euthanized at E11.5 and snap frozen in liquid nitrogen. Embryo livers were collected from litters euthanized at E17.5 and snap frozen in liquid nitrogen. Dam livers were weighed, a portion of the left lateral lobe was placed in 4% PFA for histology, and another portion of the same lobe was snap frozen in liquid nitrogen. A third liver section was obtained from Block 2 dams and fixed in McDowell and Trump’s fixative for electron microscopy (EM). Gross lesions were collected when observed and placed in 4% PFA for histology. Dam kidneys were removed, a cross section was prepared from the right kidney, a longitudinal section was prepared from the left kidney, and both sections were fixed in 4% PFA for histological analysis.
# Dam livers, kidneys, and placentas were trimmed and embedded by the NIEHS Mouse Embryo Phenotyping Core. Tissues collected at necropsy were fixed in 4% PFA for 72 h and paraffin embedded, and 5-μm sections were prepared and stained with hematoxylin and eosin (H&E). Pathology was evaluated and a pathology review conducted by S.A.E. Diplomate American College of Veterinary Pathologists (DACVP). Pathology reviews were conducted as an informed approach analysis [e.g., nonblinded analysis; see Sills et al. ([2019])]. Select tissue slides were scanned using the AT2 Scanner (Aperio). Images were then captured for publication using the ImageScope software; version 12.3.0.5056 (Aperio). Serum and urine obtained from dams in Block 2 were analyzed using the AU480 clinical chemistry analyzer (Beckman Coulter Inc.). Reagents and calibration standards used to measure alkaline phosphatase (ALP), alanine aminotransferase (ALT), aspartate aminotransferase (AST), blood urea nitrogen (BUN), serum creatinine, urine creatinine, glucose (Glu), total protein (TP), triglyceride (Trig), high-density lipoprotein (HDL), cholesterol (Chol), and albumin (ALB) were purchased from Beckman Coulter Inc. Reagents for sorbitol dehydrogenase (SDH), total bile acid (TBA), and micro-TP were purchased from Sekisui Diagnostics. The reagent used to measure low-density lipoprotein (LDL) was purchased form Diazyme Laboratories.
# maternal liver [2] = test: Transmission electron microscopy of dam liver; assay type: in vivo, mouse (CD-1); details: E17.5
# Text: Block 2 dam liver portions stored in McDowell and Trump’s fixative ([McDowell and Trump 1976]) were processed using a Leica EM TP processor. Briefly, samples were rinsed with buffer, postfixed in 1% osmium tetroxide in 0.1-M phosphate buffer, rinsed in distilled water, dehydrated, and embedded in Ply/Bed® 812 (Polysciences, Inc.) epoxide resin. Blocks were trimmed, and semithin sections ( ∼0.5μm ) were stained with 1% toluidine blue (Poly-scientific R&D Corp.) O in 1% sodium borate to ascertain areas of interest. Ultrathin sections ( […] ) were cut from areas of interest and placed on 200-mesh copper grids and stained with uranyl acetate and lead citrate, and digital images were captured using an Orius® SC1000 side mount camera (Gatan) attached to a Techani T12 transmission electron microscope (TEM) (FEI Company). In general, peroxisomes were smaller than mitochondria and round with a dark, electron-dense, granular matrix and surrounded by a single membrane. […] Samples were analyzed by R.D.K., Ph.D.
smiles,measurement,setting,value
"N.O=C(O)C(F)(OC(F)(F)C(F)(F)C(F)(F)F)C(F)(F)F (stereo not shown) [GenX, ammonium 2,3,3,3-tetrafluoro-2-(heptafluoropropoxy)propanoate]",Incidence of livers with adverse outcomes including cytoplasmic alteration,"maternal liver [1]; all dose groups, E11.5 and E17.5",100%
same,"CA, any severity: %","maternal liver [1]; E11.5, 2 mg/kg/d",100%
same,"CA, any severity: N","maternal liver [1]; E11.5, 2 mg/kg/d",5
same,"CA, marked: %","maternal liver [1]; E11.5, 2 mg/kg/d",0%
same,"CA, marked: N","maternal liver [1]; E11.5, 2 mg/kg/d",0
same,"CA, minimal to mild: %","maternal liver [1]; E11.5, 2 mg/kg/d",100%
same,"CA, minimal to mild: N","maternal liver [1]; E11.5, 2 mg/kg/d",5
same,"CA, moderate: %","maternal liver [1]; E11.5, 2 mg/kg/d",0%
same,"CA, moderate: N","maternal liver [1]; E11.5, 2 mg/kg/d",0
same,Focal regions of classic necrosis: %,"maternal liver [1]; E11.5, 2 mg/kg/d",0%
same,Focal regions of classic necrosis: N,"maternal liver [1]; E11.5, 2 mg/kg/d",0
same,Increase in cell death: %,"maternal liver [1]; E11.5, 2 mg/kg/d",80%
same,Increase in cell death: N,"maternal liver [1]; E11.5, 2 mg/kg/d",4
same,Increase in mitotic figures: %,"maternal liver [1]; E11.5, 2 mg/kg/d",60%
same,Increase in mitotic figures: N,"maternal liver [1]; E11.5, 2 mg/kg/d",3
same,"Vacuolation, any severity: %","maternal liver [1]; E11.5, 2 mg/kg/d",0%
same,"Vacuolation, any severity: N","maternal liver [1]; E11.5, 2 mg/kg/d",0
same,"Vacuolation, mild: %","maternal liver [1]; E11.5, 2 mg/kg/d",0%
same,"Vacuolation, mild: N","maternal liver [1]; E11.5, 2 mg/kg/d",0
same,"Vacuolation, minimal: %","maternal liver [1]; E11.5, 2 mg/kg/d",0%
same,"Vacuolation, minimal: N","maternal liver [1]; E11.5, 2 mg/kg/d",0
same,"Vacuolation, moderate: %","maternal liver [1]; E11.5, 2 mg/kg/d",0%
same,"Vacuolation, moderate: N","maternal liver [1]; E11.5, 2 mg/kg/d",0
same,"CA, any severity: %","maternal liver [1]; E11.5, 10 mg/kg/d",100%
same,"CA, any severity: N","maternal liver [1]; E11.5, 10 mg/kg/d",5
same,"CA, marked: %","maternal liver [1]; E11.5, 10 mg/kg/d",60%
same,"CA, marked: N","maternal liver [1]; E11.5, 10 mg/kg/d",3
same,"CA, minimal to mild: %","maternal liver [1]; E11.5, 10 mg/kg/d",0%
same,"CA, minimal to mild: N","maternal liver [1]; E11.5, 10 mg/kg/d",0
same,"CA, moderate: %","maternal liver [1]; E11.5, 10 mg/kg/d",40%
same,"CA, moderate: N","maternal liver [1]; E11.5, 10 mg/kg/d",2
same,Focal regions of classic necrosis: %,"maternal liver [1]; E11.5, 10 mg/kg/d",20%
same,Focal regions of classic necrosis: N,"maternal liver [1]; E11.5, 10 mg/kg/d",1
same,Increase in cell death: %,"maternal liver [1]; E11.5, 10 mg/kg/d",60%
same,Increase in cell death: N,"maternal liver [1]; E11.5, 10 mg/kg/d",3
same,Increase in mitotic figures: %,"maternal liver [1]; E11.5, 10 mg/kg/d",80%
same,Increase in mitotic figures: N,"maternal liver [1]; E11.5, 10 mg/kg/d",4
same,"Vacuolation, any severity: %","maternal liver [1]; E11.5, 10 mg/kg/d",100%
same,"Vacuolation, any severity: N","maternal liver [1]; E11.5, 10 mg/kg/d",5
same,"Vacuolation, mild: %","maternal liver [1]; E11.5, 10 mg/kg/d",0%
same,"Vacuolation, mild: N","maternal liver [1]; E11.5, 10 mg/kg/d",0
same,"Vacuolation, minimal: %","maternal liver [1]; E11.5, 10 mg/kg/d",100%
same,"Vacuolation, minimal: N","maternal liver [1]; E11.5, 10 mg/kg/d",5
same,"Vacuolation, moderate: %","maternal liver [1]; E11.5, 10 mg/kg/d",0%
same,"Vacuolation, moderate: N","maternal liver [1]; E11.5, 10 mg/kg/d",0
same,"CA, any severity: %","maternal liver [1]; E17.5, 2 mg/kg/d",100%
same,"CA, any severity: N","maternal liver [1]; E17.5, 2 mg/kg/d",5
same,"CA, marked: %","maternal liver [1]; E17.5, 2 mg/kg/d",0%
same,"CA, marked: N","maternal liver [1]; E17.5, 2 mg/kg/d",0
same,"CA, minimal to mild: %","maternal liver [1]; E17.5, 2 mg/kg/d",40%
same,"CA, minimal to mild: N","maternal liver [1]; E17.5, 2 mg/kg/d",2
same,"CA, moderate: %","maternal liver [1]; E17.5, 2 mg/kg/d",60%
same,"CA, moderate: N","maternal liver [1]; E17.5, 2 mg/kg/d",3
same,Focal regions of classic necrosis: %,"maternal liver [1]; E17.5, 2 mg/kg/d",20%
same,Focal regions of classic necrosis: N,"maternal liver [1]; E17.5, 2 mg/kg/d",1
same,Increase in cell death: %,"maternal liver [1]; E17.5, 2 mg/kg/d",0%
same,Increase in cell death: N,"maternal liver [1]; E17.5, 2 mg/kg/d",0
same,Increase in mitotic figures: %,"maternal liver [1]; E17.5, 2 mg/kg/d",0%
same,Increase in mitotic figures: N,"maternal liver [1]; E17.5, 2 mg/kg/d",0
same,"Vacuolation, any severity: %","maternal liver [1]; E17.5, 2 mg/kg/d",0%
same,"Vacuolation, any severity: N","maternal liver [1]; E17.5, 2 mg/kg/d",0
same,"Vacuolation, mild: %","maternal liver [1]; E17.5, 2 mg/kg/d",0%
same,"Vacuolation, mild: N","maternal liver [1]; E17.5, 2 mg/kg/d",0
same,"Vacuolation, minimal: %","maternal liver [1]; E17.5, 2 mg/kg/d",0%
same,"Vacuolation, minimal: N","maternal liver [1]; E17.5, 2 mg/kg/d",0
same,"Vacuolation, moderate: %","maternal liver [1]; E17.5, 2 mg/kg/d",0%
same,"Vacuolation, moderate: N","maternal liver [1]; E17.5, 2 mg/kg/d",0
same,"CA, any severity: %","maternal liver [1]; E17.5, 10 mg/kg/d",100%
same,"CA, any severity: N","maternal liver [1]; E17.5, 10 mg/kg/d",5
same,"CA, marked: %","maternal liver [1]; E17.5, 10 mg/kg/d",100%
same,"CA, marked: N","maternal liver [1]; E17.5, 10 mg/kg/d",5
same,"CA, minimal to mild: %","maternal liver [1]; E17.5, 10 mg/kg/d",0%
same,"CA, minimal to mild: N","maternal liver [1]; E17.5, 10 mg/kg/d",0
same,"CA, moderate: %","maternal liver [1]; E17.5, 10 mg/kg/d",0%
same,"CA, moderate: N","maternal liver [1]; E17.5, 10 mg/kg/d",0
same,Focal regions of classic necrosis: %,"maternal liver [1]; E17.5, 10 mg/kg/d",20%
same,Focal regions of classic necrosis: N,"maternal liver [1]; E17.5, 10 mg/kg/d",1
same,Increase in cell death: %,"maternal liver [1]; E17.5, 10 mg/kg/d",100%
same,Increase in cell death: N,"maternal liver [1]; E17.5, 10 mg/kg/d",5
same,Increase in mitotic figures: %,"maternal liver [1]; E17.5, 10 mg/kg/d",0%
same,Increase in mitotic figures: N,"maternal liver [1]; E17.5, 10 mg/kg/d",0
same,"Vacuolation, any severity: %","maternal liver [1]; E17.5, 10 mg/kg/d",100%
same,"Vacuolation, any severity: N","maternal liver [1]; E17.5, 10 mg/kg/d",5
same,"Vacuolation, mild: %","maternal liver [1]; E17.5, 10 mg/kg/d",60%
same,"Vacuolation, mild: N","maternal liver [1]; E17.5, 10 mg/kg/d",3
same,"Vacuolation, minimal: %","maternal liver [1]; E17.5, 10 mg/kg/d",40%
same,"Vacuolation, minimal: N","maternal liver [1]; E17.5, 10 mg/kg/d",2
same,"Vacuolation, moderate: %","maternal liver [1]; E17.5, 10 mg/kg/d",0%
same,"Vacuolation, moderate: N","maternal liver [1]; E17.5, 10 mg/kg/d",0
same,Liver ultrastructure (TEM),maternal liver [2]; 2 mg/kg/d,abnormal ultrastructure
same,Liver ultrastructure (TEM),maternal liver [2]; 10 mg/kg/d,abnormal ultrastructure
